Results: article PMC6273433, “Design, Synthesis and Cytotoxicity of Novel Dihydroartemisinin-Coumarin Hybrids via Click Chemistry” (Molecules, 2016)
pIC50: −log10 of the molar value. Where two headings read alike, the source gives them in different places.

Tests used:
[1] = test system: MRC-5 (human fetal lung fibroblast cells, normal lung cell); assay: MTT cytotoxicity assay, MRC-5 normal cells; assay type: cell-based; details: MRC5, MRC-5, normoxia, 96 h MTT
Procedure: (§1) We focused our attention on the cytotoxicity of the four series of newly-synthesized compounds (10a–e, 11a–e, 12a–e, and 13a–e) under normoxic or anoxic conditions.
(§2) The data was calculated by the Logit method and presented as IC50 values in Table 1.
(§3) All of the newly-synthesized compounds were screened for in vitro cytotoxicity by MTT assay. The exponentially-growing MRC-5, HCT-116, MDA-MB-231, and HT-29 cells were allowed to grow until 80% confluency, the culture medium was discarded, digested with trypsin, separated centrifugally, then fresh culture medium was added and blown gently into single-cell suspension. Then, the cell suspension was seeded into each well of 96-well microculture plates at a concentration of 1.5 × 10^3–3 × 10^3 cells/well.
(§4) The cells were incubated with 50 μL of 2 mg/mL MTT solution for 4 h in a humidified incubator. The supernatant was discarded, and the media were then replaced with 200 μL of dimethyl sulfoxide to dissolve the purple colored formazan crystals formed in the wells, and their absorbances were measured at 492 nm with a microplate reader (Synergy-HT, BioTek Instruments, Winooski, VT, USA); 200 μL DMSO was set as the blank control.

[2] = test system: HCT-116 (human colorectal cancer cell line); assay: MTT cytotoxicity assay, HCT-116 under anoxia or normoxia; assay type: cell-based; details: for HCT-116 Value = IC50(normoxia)/IC50(anoxia): HCT-116, activity promotion under anoxia, >100 set as 100; for pIC50: Homo sapiens
Procedure: as §1, §2, §3, §4
(§5) The anoxia condition was achieved by placing cells in a sealed hypoxia incubator chamber (Catalog Number 27310, Stemcell Technologies, Inc., Vancouver, BC, Canada) filled with 5% CO2 and 95% N2.

[3] = test system: MDA-MB-231 (human breast carcinoma cell line, CA IX negative); assay: MTT cytotoxicity assay, MDA-MB-231 under anoxia or normoxia; assay type: cell-based; details: for pIC50: Homo sapiens; for MDA-MB-231 Value = IC50(normoxia)/IC50(anoxia): MDA-MB-231, activity promotion under anoxia, >100 set as 100
Procedure: as §1, §2, §3, §4, §5

[4] = test system: HT-29 (human colon carcinoma cell line, overexpresses high amounts of CA IX); assay: MTT cytotoxicity assay, HT-29 under anoxia or normoxia; assay type: cell-based; details: for HT-29 Value = IC50(normoxia)/IC50(anoxia): HT-29, activity promotion under anoxia; for pIC50: Homo sapiens
Procedure: as §1, §2, §3, §4, §5

[5] = HCT-116, anoxia 24 h then normoxia 72 h, MTT, read-out: IC50 HCT-116 Anoxia
[6] = HCT-116, normoxia, 96 h MTT, read-out: IC50 HCT-116 Normoxia
[7] = MDA-MB-231, anoxia 24 h then normoxia 72 h, MTT, read-out: IC50 MDA-MB-231 Anoxia
[8] = MDA-MB-231, normoxia, 96 h MTT, read-out: IC50 MDA-MB-231 Normoxia
[9] = HT-29, anoxia 24 h then normoxia 72 h, MTT, read-out: IC50 HT-29 Anoxia
[10] = HT-29, normoxia, 96 h MTT, read-out: IC50 HT-29 Normoxia

melting point [°C] | SMILES | pIC50 [1] | HCT-116 Value = IC50(normoxia)/IC50(anoxia) [2] | pIC50 [2, 5] | pIC50 [2, 6] | pIC50 [3, 7] | pIC50 [3, 8] | MDA-MB-231 Value = IC50(normoxia)/IC50(anoxia) [3] | HT-29 Value = IC50(normoxia)/IC50(anoxia) [4] | pIC50 [4, 9] | pIC50 [4, 10]
– | C[C@H]1[C@@H](OCc2cn(CCCOc3ccc4c(C(F)(F)F)cc(=O)oc4c3)nn2)O[C@@H]2O[C@@]3(C)CC[C@H]4[C@H](C)CC[C@@H]1[C@@]24OO3 [11b, 7-(3-(4-(10β-Dihydroartemisininoxy)methyl)-1H-1,2,3-triazol-1-yl)propoxy-4-trifluoromethyl-2H-chromen-2-one] | 4.36 | 1.38 | 5.03 | 4.89 | 4.43 | 4.14 | 1.97 | 1.63 | 5.30 | 5.08
– | Cc1c(C)c2ccc(OCCCn3cc(CO[C@H]4O[C@@H]5O[C@@]6(C)CC[C@H]7[C@H](C)CC[C@@H]([C@H]4C)[C@@]57OO6)nn3)cc2oc1=O [11c, 7-(3-(4-(10β-Dihydroartemisininoxy)methyl)-1H-1,2,3-triazol-1-yl)propoxy-3,4-dimethyl-2H-chromen-2-one] | 4.22 | 1.27 | 4.78 | 4.68 | 4.40 | 4.25 | 1.41 | 0.83 | 4.63 | 4.71
– | Cc1c(Cl)c(=O)oc2cc(OCCCn3cc(CO[C@H]4O[C@@H]5O[C@@]6(C)CC[C@H]7[C@H](C)CC[C@@H]([C@H]4C)[C@@]57OO6)nn3)ccc12 [11d, 3-Chloro-7-(3-(4-(10β-dihydroartemisininoxy)methyl)-1H-1,2,3-triazol-1-yl)propoxy-4-methyl-2H-chromen-2-one] | < 4.00 | 1.28 | 5.22 | 5.11 | 4.65 | 4.29 | 2.29 | 2.90 | 5.87 | 5.41
– | CCOC(=O)c1cc2ccc(OCCCn3cc(CO[C@H]4O[C@@H]5O[C@@]6(C)CC[C@H]7[C@H](C)CC[C@@H]([C@H]4C)[C@@]57OO6)nn3)cc2oc1=O [11e, Ethyl 2-oxo-7-(3-(4-(10β-dihydroartemisininoxy)methyl)-1H-1,2,3-triazol-1-yl)propoxy-2H-chromene-3-carboxylate] | 4.41 | 1.57 | 4.55 | 4.36 | 4.30 | 3.92 | 2.38 | 4.25 | 4.92 | 4.29
79 to 81 | Cc1cc(=O)oc2cc(OCc3cn(CCO[C@H]4O[C@@H]5O[C@@]6(C)CC[C@H]7[C@H](C)CC[C@@H]([C@H]4C)[C@@]57OO6)nn3)ccc12 [12a, 7-(1-(2-(10β-Dihydroartemisininoxy)ethyl)-1H-1,2,3-triazol-4-yl)methoxy-4-methyl-2H-chromen-2-one] | 4.43 | 1.50 | 4.74 | 4.56 | 4.32 | 3.90 | 2.63 | 3.11 | 4.97 | 4.48
77 to 79 | C[C@H]1[C@@H](OCCn2cc(COc3ccc4c(C(F)(F)F)cc(=O)oc4c3)nn2)O[C@@H]2O[C@@]3(C)CC[C@H]4[C@H](C)CC[C@@H]1[C@@]24OO3 [12b, 7-(1-(2-(10β-Dihydroartemisininoxy)ethyl)-1H-1,2,3-triazol-4-yl)methoxy-4-trifluoromethyl-2H-chromen-2-one] | 4.73 | 0.35 | 4.61 | 5.07 | 4.83 | 4.40 | 2.73 | 4.62 | 5.61 | 4.95
84 to 86 | Cc1c(C)c2ccc(OCc3cn(CCO[C@H]4O[C@@H]5O[C@@]6(C)CC[C@H]7[C@H](C)CC[C@@H]([C@H]4C)[C@@]57OO6)nn3)cc2oc1=O [12c, 7-(1-(2-(10β-Dihydroartemisininoxy)ethyl)-1H-1,2,3-triazol-4-yl)methoxy-3,4-dimethyl-2H-chromen-2-one] | 4.47 | 1.33 | 4.92 | 4.80 | 4.48 | < 4.00 | – | 6.04 | 5.54 | 4.76
76 to 78 | Cc1c(Cl)c(=O)oc2cc(OCc3cn(CCO[C@H]4O[C@@H]5O[C@@]6(C)CC[C@H]7[C@H](C)CC[C@@H]([C@H]4C)[C@@]57OO6)nn3)ccc12 [12d, 3-Chloro-7-(1-(2-(10β-dihydroartemisininoxy)ethyl)-1H-1,2,3-triazol-4-yl)methoxy-4-methyl-2H-chromen-2-one] | 4.21 | 2.71 | 5.23 | 4.80 | 4.36 | < 4.00 | 2.30 | 6.16 | 5.44 | 4.65
71 to 73 | CCOC(=O)c1cc2ccc(OCc3cn(CCO[C@H]4O[C@@H]5O[C@@]6(C)CC[C@H]7[C@H](C)CC[C@@H]([C@H]4C)[C@@]57OO6)nn3)cc2oc1=O [12e, Ethyl 2-oxo-7-(1-(2-(10β-dihydroartemisininoxy)ethyl)-1H-1,2,3-triazol-4-yl)methoxy-2H-chromene-3-carboxylate] | 4.16 | 1.62 | 4.45 | 4.24 | 4.19 | < 4.00 | 1.54 | 1.88 | 4.68 | 4.41
75 to 77 | Cc1cc(=O)oc2cc(OCc3cn(CCCO[C@H]4O[C@@H]5O[C@@]6(C)CC[C@H]7[C@H](C)CC[C@@H]([C@H]4C)[C@@]57OO6)nn3)ccc12 [13a, 7-(1-(3-(10β-Dihydroartemisininoxy)propyl)-1H-1,2,3-triazol-4-yl)methoxy-4-methyl-2H-chromen-2-one] | 4.58 | 2.95 | 5.02 | 4.55 | 4.44 | < 4.00 | 2.77 | 4.30 | 5.19 | 4.56
– | COc1cccc2c1C(=O)c1c(O)c3c(c(O)c1C2=O)C[C@@](O)(C(=O)CO)C[C@@H]3O[C@H]1C[C@H](N)[C@H](O)[C@H](C)O1 [DOX, doxorubicin, reference compound] | 6.47 | 0.39 | 6.82 | 7.22 | 6.43 | 6.57 | 0.73 | 1.74 | 7.30 | 7.05
